{"source": "patent US8921318B2", "about": "“Application of initial doses of LHRH analogues and maintenance doses of LHRH antagonists for the treatment of hormone-dependent cancers and corresponding pharmaceutical kits” (Aeterna Zentaris GmbH, priority 2006, dated 2014)", "key": {"[1]": {"system": "testosterone levels", "experiment": "Testosterone levels in prostate cancer patients under initial dose / maintenance dose treatment", "type": "in vivo, human", "details": "for testosterone levels during first period: prostate cancer patients", "procedure": "(§1) 130 mg ozarelix is given as a single monthly initial dose per i.m. injection every 4 weeks to patients suffering from prostate cancer for a first period of 3 months. […] Subsequently, patients are treated with single monthly maintenance doses of 30 mg ozarelix given per i.m. injection over a period of 6 months. […] The treatment scheme is then repeated continuously (chronic treatment).\n(§2) 200 mg ozarelix is given as a single initial dose per i.m. injection once every 3 months to patients suffering from prostate cancer for a first period of 3 to 6 months. […] Subsequently, patients are treated with single monthly maintenance doses of 40 mg ozarelix given per i.m. injection over a period of 6 months. […] The treatment scheme is then repeated continuously (chronic treatment).\n(§3) 3.75 mg leuprorelin (leuprolide) are given as a single monthly initial dose per i.m. injection every 4 weeks to patients suffering from prostate cancer for a first period of 6 months. […] Subsequently, patients are treated with single monthly maintenance doses of 20 mg ozarelix given per i.m. injection over a period of 9 months. […] The treatment scheme is then repeated continuously (chronic treatment).\n(§4) 11.25 mg leuprorelin (leuprolide) are given as a single initial dose per i.m. injection once every three months to patients suffering from prostate cancer for a first period of 3 months. […] Subsequently, patients are treated with single monthly maintenance doses of 50 mg ozarelix given per i.m. injection over a period of 3 months. […] The treatment scheme is then repeated continuously (chronic treatment)."}, "[2]": {"system": "Prostate Specific Antigen (PSA)", "experiment": "PSA levels in prostate cancer patients under initial dose / maintenance dose treatment", "type": "in vivo, human", "details": "for PSA levels decrease during first period: prostate cancer patients", "procedure": "as §1, §2, §3, §4"}, "[3]": {"details": "Example 3: 3.75 mg leuprorelin i.m. single monthly initial dose every 4 weeks, first period 6 months"}, "[4]": {"details": "Example 4: 11.25 mg leuprorelin i.m. single initial dose once every three months, first period 3 months"}, "[5]": {"details": "Example 1: 130 mg ozarelix i.m. single monthly initial dose every 4 weeks, first period 3 months"}, "[6]": {"details": "Example 1: monthly maintenance doses of 30 mg ozarelix i.m. over 6 months, after 130 mg ozarelix initial doses"}, "[7]": {"details": "Example 2: 200 mg ozarelix i.m. single initial dose once every 3 months, first period 3 to 6 months"}, "[8]": {"details": "Example 2: monthly maintenance doses of 40 mg ozarelix i.m. over 6 months, after 200 mg ozarelix initial doses"}, "[9]": {"details": "Example 3: monthly maintenance doses of 20 mg ozarelix i.m. over 9 months, after 3.75 mg leuprorelin initial doses"}, "[10]": {"details": "Example 4: monthly maintenance doses of 50 mg ozarelix i.m. over 3 months, after 11.25 mg leuprorelin initial dose"}}, "data": [{"molecule": "CCNC(=O)[C@@H]1CCCN1C(=O)[C@H](CCCNC(=N)N)NC(=O)[C@H](CC(C)C)NC(=O)[C@@H](CC(C)C)NC(=O)[C@H](Cc1ccc(O)cc1)NC(=O)[C@H](CO)NC(=O)[C@H](Cc1c[nH]c2ccccc12)NC(=O)[C@H](Cc1c[nH]cn1)NC(=O)[C@@H]1CCC(=O)N1", "note": "[leuprorelin]", "values": [{"measurement": "testosterone levels during first period", "setting": "[1]; [3]", "value": "quickly reach castration level"}, {"measurement": "testosterone levels during first period", "setting": "[1]; [4]", "value": "quickly reach castration level"}, {"measurement": "PSA levels decrease during first period", "setting": "[2]; [3]", "value": "up to 95%"}, {"measurement": "PSA levels decrease during first period", "setting": "[2]; [4]", "value": "up to 95%"}]}, {"molecule": "ozarelix", "values": [{"measurement": "testosterone levels during first period", "setting": "[1]; [5]", "value": "quickly reach castration level"}, {"measurement": "testosterone levels during second period", "setting": "[1]; [6]", "value": "above 0.5 ng/mL"}, {"measurement": "testosterone levels during first period", "setting": "[1]; [7]", "value": "quickly reach castration level"}, {"measurement": "testosterone levels during second period", "setting": "[1]; [8]", "value": "above 0.5 ng/mL"}, {"measurement": "testosterone levels during second period", "setting": "[1]; [9]", "value": "above 0.5 ng/mL"}, {"measurement": "testosterone levels during second period", "setting": "[1]; [10]", "value": "above 0.5 ng/mL"}, {"measurement": "PSA levels decrease during first period", "setting": "[2]; [5]", "value": "up to 95%"}, {"measurement": "PSA levels during second period", "setting": "[2]; [6]", "value": "remain stably low until the end of the second period"}, {"measurement": "PSA levels decrease during first period", "setting": "[2]; [7]", "value": "up to 95%"}, {"measurement": "PSA levels during second period", "setting": "[2]; [8]", "value": "remain stably low until the end of the second period"}, {"measurement": "PSA levels during second period", "setting": "[2]; [9]", "value": "remain stably low until the end of the second period"}, {"measurement": "PSA levels during second period", "setting": "[2]; [10]", "value": "remain stably low until the end of the second period"}]}]}
